Calls of active or inactive are those of the source. The calls are words filed in the database; no cut-off is given here.
Key:
[1] = Cytotoxicity against human A-431 cells measured after 24 hrs by MTT assay; format: toxicity, cell-based
[2] = Cytotoxicity against human HeLa cells measured after 24 hrs by MTT assay; format: toxicity, cell-based
[3] = Cytotoxicity against mouse Neuro2a cells measured after 24 hrs by MTT assay; format: toxicity, cell-based, N2a
[4] = Cytotoxicity against rat PC-12 cells measured after 24 hrs by MTT assay; format: toxicity, cell-based
[5] = Cytotoxicity against CHO cells measured after 24 hrs by MTT assay; format: toxicity, cell-based, Cricetulus griseus; conditions: Chinese hamster
A-431 [6] = test: Inhibition of cell invasion in human A-431 cells assessed as inhibition rate at 50 uM incubated for 24 hrs by crystal violet staining based transwell assay; format: functional
A-431 [7] = test: Antimigratory activity in human A-431 cells assessed as inhibition of scratch at 50 uM measured after 24 hrs by Wound healing assay; format: functional
Mus musculus [8] = test: Effect on IL-2 expression in C57BL/6 mouse transfected with mouse B16-Luc cells assessed as serum IL-2 level at 5 mg/kg, ip qd treated for 7 days by ELISA; format: functional, organism-based; conditions: time 7.0 day
Mus musculus [9] = test: Effect on IL-2 expression in C57BL/6 mouse transfected with mouse B16-Luc cells assessed as serum […] level at 5 mg/kg, ip qd treated for 7 days by ELISA; format: functional, organism-based; conditions: time 7.0 day
Mus musculus [10] = test: Effect on IL-2 expression in C57BL/6 mouse transfected with mouse B16-Luc cells assessed as serum IgG level at 5 mg/kg, ip qd treated for 7 days by ELISA; format: functional, organism-based; conditions: time 7.0 day

Compound | IC50 at 24 h [1] [µM] | IC50 at 24 h [2] [µM] | IC50 at 24 h [3] [µM] | IC50 at 24 h [4] [µM] | IC50 at 24 h [5] [µM] | inhibition at 50 µM (A-431 [6]) [%] | Activity (A-431 [7]) | Activity (Mus musculus [8]) | Activity (Mus musculus [9]) | Activity (Mus musculus [10])
CCCCCCCCCCCCC/C=C/[C@@H](O)[C@H](CO[C@@H]1O[C@H](CO)[C@@H](O[C@@H]2O[C@H](CO)[C@H](O)[C@H](O[C@]3(C(=O)O)C[C@H](O)[C@@H](NC(=O)c4cc(C)cc(C)c4)[C@H]([C@H](O)[C@H](O)CO)O3)[C@H]2O)[C@H](O)[C@H]1O)NC(=O)CCCCCCCCCCCCCCCCC | > 200 | > 200 | > 200 | > 200 | > 200 |  |  |  |  | 
CCCCCCCCCCCCC/C=C/[C@@H](O)[C@H](CO[C@@H]1O[C@H](CO)[C@@H](O[C@@H]2O[C@H](CO)[C@H](O)[C@H](O[C@]3(C(=O)O)C[C@H](O)[C@@H](NC(=O)Cc4ccc(C)cc4)[C@H]([C@H](O)[C@H](O)CO)O3)[C@H]2O)[C@H](O)[C@H]1O)NC(=O)CCCCCCCCCCCCCCCCC | > 200 | > 200 | > 200 | > 200 | > 200 |  |  |  |  | 
CCCCCCCCCCCCC/C=C/[C@@H](O)[C@H](CO[C@@H]1O[C@H](CO)[C@@H](O[C@@H]2O[C@H](CO)[C@H](O)[C@H](O[C@]3(C(=O)O)C[C@H](O)[C@@H](NC(=O)c4ccc(F)cc4)[C@H]([C@H](O)[C@H](O)CO)O3)[C@H]2O)[C@H](O)[C@H]1O)NC(=O)CCCCCCCCCCCCCCCCC | > 200 | > 200 | > 200 | > 200 | > 200 |  |  |  |  | 
CCCCCCCCCCCCC/C=C/[C@@H](O)[C@H](CO[C@@H]1O[C@H](CO)[C@@H](O[C@@H]2O[C@H](CO)[C@H](O)[C@H](O[C@]3(C(=O)O)C[C@H](O)[C@@H](NC(=O)c4ccncc4)[C@H]([C@H](O)[C@H](O)CO)O3)[C@H]2O)[C@H](O)[C@H]1O)NC(=O)CCCCCCCCCCCCCCCCC | > 200 | > 200 | > 200 | > 200 | > 200 | 26.2 | Active |  |  | 
CCCCCCCCCCCCC/C=C/[C@@H](O)[C@H](CO[C@@H]1O[C@H](CO)[C@@H](O[C@@H]2O[C@H](CO)[C@H](O)[C@H](O[C@]3(C(=O)O)C[C@H](O)[C@@H](NC(C)=O)[C@H]([C@H](O)[C@H](O)CO)O3)[C@H]2O)[C@H](O)[C@H]1O)NC(=O)CCCCCCCCCC | > 200 | > 200 | > 200 | > 200 | > 200 |  |  |  |  | 
CCCCCCCCCCCCC/C=C/[C@@H](O)[C@H](CO[C@@H]1O[C@H](CO)[C@@H](O[C@@H]2O[C@H](CO)[C@H](O)[C@H](O[C@]3(C(=O)O)C[C@H](O)[C@@H](NC(=O)c4cccc(F)c4)[C@H]([C@H](O)[C@H](O)CO)O3)[C@H]2O)[C@H](O)[C@H]1O)NC(=O)CCCCCCCCCCCCCCCCC | > 200 | > 200 | > 200 | > 200 | > 200 | 27.8 | Active |  |  | 
CCCCCCCCCCCCC/C=C/[C@@H](O)[C@H](CO[C@@H]1O[C@H](CO)[C@@H](O[C@@H]2O[C@H](CO)[C@H](O)[C@H](O[C@]3(C(=O)O)C[C@H](O)[C@@H](NC(=O)c4ccc(I)cc4)[C@H]([C@H](O)[C@H](O)CO)O3)[C@H]2O)[C@H](O)[C@H]1O)NC(=O)CCCCCCCCCCCCCCCCC | > 200 | > 200 | > 200 | > 200 | > 200 |  |  |  |  | 
CCCCCCCCCCCCC/C=C/[C@@H](O)[C@H](CO[C@@H]1O[C@H](CO)[C@@H](O[C@@H]2O[C@H](CO)[C@H](O)[C@H](O[C@]3(C(=O)O)C[C@H](O)[C@@H](NC(=O)c4ccccc4)[C@H]([C@H](O)[C@H](O)CO)O3)[C@H]2O)[C@H](O)[C@H]1O)NC(=O)CCCCCCCCCCCCCCCCC | > 200 | > 200 | > 200 | > 200 | > 200 |  |  |  |  | 
CCCCCCCCCCCCC/C=C/[C@@H](O)[C@H](CO[C@@H]1O[C@H](CO)[C@@H](O[C@@H]2O[C@H](CO)[C@H](O)[C@H](O[C@]3(C(=O)O)C[C@H](O)[C@@H](NC(=O)CC)[C@H]([C@H](O)[C@H](O)CO)O3)[C@H]2O)[C@H](O)[C@H]1O)NC(=O)CCCCCCCCCCCCCCCCC | > 200 | > 200 | > 200 | > 200 | > 200 |  |  |  |  | 
CCCCCCCCCCCCC/C=C/[C@@H](O)[C@H](CO[C@@H]1O[C@H](CO)[C@@H](O[C@@H]2O[C@H](CO)[C@H](O)[C@H](O[C@]3(C(=O)O)C[C@H](O)[C@@H](NC(=O)c4cccc([N+](=O)[O-])c4)[C@H]([C@H](O)[C@H](O)CO)O3)[C@H]2O)[C@H](O)[C@H]1O)NC(=O)CCCCCCCCCCCCCCCCC | > 200 | > 200 | > 200 | > 200 | > 200 |  |  |  |  | 
CCCCCCCCCCCCC/C=C/[C@@H](O)[C@H](CO[C@@H]1O[C@H](CO)[C@@H](O[C@@H]2O[C@H](CO)[C@H](O)[C@H](O[C@]3(C(=O)O)C[C@H](O)[C@@H](NC(=O)c4ccc(C=O)cc4)[C@H]([C@H](O)[C@H](O)CO)O3)[C@H]2O)[C@H](O)[C@H]1O)NC(=O)CCCCCCCCCCCCCCCCC | > 200 | > 200 | > 200 | > 200 | > 200 |  | Active |  |  | 
CCCCCCCCCCCCC/C=C/[C@@H](O)[C@H](CO[C@@H]1O[C@H](CO)[C@@H](O[C@@H]2O[C@H](CO)[C@H](O)[C@H](O[C@]3(C(=O)O)C[C@H](O)[C@@H](NC(=O)c4cc(F)cc(F)c4)[C@H]([C@H](O)[C@H](O)CO)O3)[C@H]2O)[C@H](O)[C@H]1O)NC(=O)CCCCCCCCCCCCCCCCC | > 200 | > 200 | > 200 | > 200 | > 200 |  |  |  |  | 
CCCCCCCCCCCCC/C=C/[C@@H](O)[C@H](CO[C@@H]1O[C@H](CO)[C@@H](O[C@@H]2O[C@H](CO)[C@H](O)[C@H](O[C@]3(C(=O)O)C[C@H](O)[C@@H](NC(=O)c4cccc(Br)c4)[C@H]([C@H](O)[C@H](O)CO)O3)[C@H]2O)[C@H](O)[C@H]1O)NC(=O)CCCCCCCCCCCCCCCCC | > 200 | > 200 | > 200 | > 200 | > 200 |  |  |  |  | 
CCCCCCCCCCCCC/C=C/[C@@H](O)[C@H](CO[C@@H]1O[C@H](CO)[C@@H](O[C@@H]2O[C@H](CO)[C@H](O)[C@H](O[C@]3(C(=O)O)C[C@H](O)[C@@H](NC(C)=O)[C@H]([C@H](O)[C@H](O)CO)O3)[C@H]2O)[C@H](O)[C@H]1O)NC(=O)CCCCCCCCCCCCCCCCC |  |  |  |  |  |  |  | inactive | inactive | inactive
